Where “and” joins values, the source holds several entries; their conditions need not be identical. Equal values may be shown once.
Assays:
[1] = system: whipworms (Trichuris suis); assay: Anthelmintic activity against swine whipworms; format: in vivo; conditions: oral in feed; for Number of remaining worms: autopsy one week; for EPG Before administration: baseline; for EPG Upon autopsy: one week
Experimental: The PF 1022 substance was evaluated for its anthelmintic effect on swine whipworms by orally administering it to swine found to be infected with whipworms (Trichuris suis) by scatoscopy.
The PF 1022 substance was administered either once at 1 mg/kg, 5 mg/kg or 10 mg/kg, or at a daily dose of 2.5 mg/kg or 5 mg/kg once daily for 2 consecutive days by admixing an amount of the substance as such equal to each dose with a small portion of the ordinary feed. After administration, the number of whipworm eggs in the feces of each animal was determined daily in terms of EPG. In three animals, the worms eliminated were counted as well. One week after initiation of administration, all the animals were sacrificed and autopsied and the worms remaining in the intestinal tract were counted.

[2] = system: fourth stomachworms (Ostertaqia circumcincta); assay: Sheep digestive tract nematodes, worms remaining in the fourth stomach; format: in vivo; conditions: for number of worms remaining in the fourth stomach at autopsy: autopsy 7 days after administration, mean of 6 animals
Experimental: The PF 1022 substance was evaluated for its anthelmintic effect in sheep mixedly infected with fourth stomachworms (Ostertaqia circumcincta) and small intestinal hairworms (Trichostrongylus colubriformis) by administering it orally to 24 sheep artificially infected with said two worm species.
The infected sheep were divided into 4 groups of 6 animals, which were respectively given 1 mg/kg, 5 mg/kg, 10 mg/kg and 0 mg/kg (control) of the substance suspended in 0.5% CMC, via a stomach catheter. The observation items were the number of parasite eggs per gram of feces (EPG) before administration, the EPG 7 days after administration, and the number of worms remaining in the fourth stomach and that of worms remaining in the intestinal tract as found upon autopsy 7 days after administration.
Each numerical value given is the mean of 6 animals.

[3] = system: roundworms (Parascaris equorum); assay: Anthelmintic effect on equine roundworms; format: in vivo; conditions: horse, oral 5 mg/kg Day 0 and 2.5 mg/kg Day 1
Experimental: The PF 1022 substance was evaluated for its anthelmintic effect in a horse found by scatoscopy to be infected with roundworms (Parascaris equorum) and strongyles (Strongylus spp.) by orally administering the substance thereto.
The PF 1022 substance was suspended in water and administered with a stomach catheter at 5 mg/kg on the first day and at 2.5 mg/kg on the second day. For both the roundworms and strongyles, parasite eggs in each gram of feces (EPG) as well as parasites eliminated were counted daily for one week following the first administration. For strongyles, the number of worms in 100 g of feces was determined.

[4] = Oral toxicity in mice (body weight gain, abnormalities); format: in vivo; conditions: 300 mg/kg
[5] = system: large intestinal roundworms (Ascaridia galli); assay: Chicken large intestinal roundworms, administration in feed for 3 weeks; format: in vivo; conditions: chickens; for Number of eggs before starting administration: baseline
Experimental: The PF 1022 substance was evaluated for its anthelmintic effect on 9 chickens found, by scatoscopy, to be infected with large intestinal roundworms (Ascaridia galli) by administering it in admixture with the feed.
The chickens were divided into three groups of 3 animals, which served as the 1 ppm, 5 ppm and 10 ppm groups. The feed containing the PF 1022 substance in each concentration mentioned above was given to the chickens for 3 weeks. Parasite eggs in feces were counted at one-week intervals in terms of EPG and worms eliminated were counted daily. At the end of the administration period, the chickens were sacrificed and autopsied and the worms remaining therein were counted.

[6] = system: feline hookworms (Ancylostoma tubaeforme); assay: Anthelmintic activity against cat hookworms; format: in vivo; conditions: cats
Experimental: The PF 1022 substance was evaluated for its anthelmintic effect on feline hookworms (Ancylostoma tubaeforme) by orally administering the substance once to 12 cats found to be infected with said worms by scatoscopy.
The infected cats were divided into three groups of 4 animals and respectively given 0.2 mg/kg, 1 mg/kg and 5 mg/kg of the substance admixed as such with a small portion of the ordinary feed. The observation items were the number of worms eliminated during 7 days following administration and the number of remaining worms found upon autopsy 7 days after administration.

[7] = Classification by basicity, acidity or neutrality; format: physicochemical
[8] = system: large intestinal roundworms (Ascaris suum); assay: Anthelmintic activity against swine large intestinal roundworms; format: in vivo; conditions: oral in feed; for Number of remaining worms: autopsy one week; for EPG Before administration: baseline; for EPG Upon autopsy: one week
Experimental: The anthelmintic effect of the PF 1022 substance in swine was evaluated by orally administering the substance to swine found to be infected with large intestinal roundworms (Ascaris suum) by scatoscopy.
The PF 1022 substance was administered either once at 5 mg/kg or 10 mg/kg, or at a daily dose of 1.25 mg/kg, 2.5 mg/kg or 5 mg/kg once daily for consecutive 2 days by admixing an amount of the substance as such equal to each dose with a small portion of the ordinary feed. After administration, the worms eliminated were counted and the feces examined for the number of roundworm eggs per gram of feces (EPG) daily. One week after commencement of administration, the animals were sacrificed and autopsied for counting the worms remaining in the intestinal tract.

[9] = 2 administrations, 2.5 mg/kg/administration
[10] = 2 administrations, 5 mg/kg/administration
[11] = 2 administrations, 1.25 mg/kg/administration, 1.25 mg/kg

For `CC(C)C[C@H]1C(=O)O[C@H](Cc2ccccc2)C(=O)N(C)[C@@H](CC(C)C)C(=O)O[C@H](C)C(=O)N(C)[C@@H](CC(C)C)C(=O)O[C@H](Cc2ccccc2)C(=O)N(C)[C@@H](CC(C)C)C(=O)O[C@H](C)C(=O)N1C` [PF 1022 substance], the “% Elimination” value ([1]; 1 administration, 1 mg/kg) was 4.0%, the “Number of worms eliminated” value ([1]; 1 administration, 1 mg/kg) was 14 and the “Number of remaining worms” value ([1]; 1 administration, 1 mg/kg) was 334. For the same compound, the “EPG Before administration” value ([1]; 1 administration, 1 mg/kg) was 5500, the “EPG Upon autopsy” value ([1]; 1 administration, 1 mg/kg) was 1200 and the “% Elimination” value ([1]; 1 administration, 10 mg/kg) was 100%. For the same compound, the “Number of remaining worms” value ([1]; 1 administration, 10 mg/kg) was 0, the “EPG Before administration” value ([1]; 1 administration, 10 mg/kg) was 1800 and the “EPG Upon autopsy” value ([1]; 1 administration, 10 mg/kg) was 0. The “% Elimination” value [1, 9] was 100%, the “EPG Upon autopsy” value [1, 9] was 0 and the “% Elimination” value [1, 10] was 100%. For the same compound, the “Number of remaining worms” value [1, 10] was 0, the “EPG Before administration” value [1, 10] was 100 and the “EPG Upon autopsy” value [1, 10] was 0. For the same compound, the “number of worms remaining in the fourth stomach at autopsy” value (“number of worms remaining … at autopsy” below) ([2]; oral 1 mg/kg) was 4967, the “number of worms remaining … at autopsy” value ([2]; oral 5 mg/kg) was 4717 and the “number of worms remaining in the fourth stomach relative to the control infected group” value ([2]; oral 10 mg/kg) was “about half”. The “number of worms remaining … at autopsy” value ([2]; oral 10 mg/kg) was 2463, the EPG ([3]; Day 0) was 77 and the “Number of worms eliminated” value ([3]; Day 0) was 0. For the same compound, the EPG ([3]; Day 1) was 52, the “Number of worms eliminated” value ([3]; Day 1) was 22 and the EPG ([3]; Day 2) was 0.4. For the same compound, the “Number of worms eliminated” value ([3]; Day 2) was 17, the EPG ([3]; Day 3) was 0.2 and the “Number of worms eliminated” value ([3]; Day 3) was 0. For the same compound, the EPG ([3]; Day 4) was 0, the “Number of worms eliminated” value ([3]; Day 4) was 0 and the EPG ([3]; Day 5) was 0. The “Number of worms eliminated” value ([3]; Day 5) was 0, the EPG ([3]; Day 6) was 0.2 and the “Number of worms eliminated” value ([3]; Day 6) was 0. The EPG ([3]; Day 7) was 0, the “Number of worms eliminated” value ([3]; Day 7) was 0 and the “body weight gains and abnormalities” value [4] was “normal body weight gains are obtained without any abnormalities”. The “Number of worms remaining” value ([5]; 1 ppm in feed for 3 weeks, autopsy) was 49 and 96 and 83, the “Number of eggs before starting administration” value ([5]; 1 ppm in feed) was > 300 and 172 and the “% Elimination” value ([5]; 5 ppm in feed for 3 weeks) was 86.1% and 56.9% and 62.5%. For the same compound, the “Number of eggs before starting administration” value ([5]; 5 ppm in feed) was 300 and > 300 and 158, the “Number of worms eliminated” value ([5]; 10 ppm in feed for 3 weeks) was 44 and 55 and 45 and the “Number of eggs before starting administration” value ([5]; 10 ppm in feed) was 300 and > 300 and 176. The “% Elimination” value ([6]; single oral dose 1 mg/kg, 1 mg/kg) was 62.5% and 100% and 87.5% and 98.2%, the “% Elimination” value ([6]; single oral dose 5 mg/kg) was 100% and the “Number of remaining worms” value ([6]; single oral dose 5 mg/kg, autopsy 7 days) was 0. The “Classification by basicity, acidity or neutrality” value [7] was “Neutral substance”, the “Number of worms eliminated” value ([8]; 1 administration, 5 mg/kg) was 12 and the “Number of remaining worms” value ([8]; 1 administration, 5 mg/kg) was 13. For the same compound, the “EPG Before administration” value ([8]; 1 administration, 5 mg/kg) was 99000, the “EPG Upon autopsy” value ([8]; 1 administration, 5 mg/kg) was 8000 and the “Number of worms eliminated” value ([8]; 1 administration, 10 mg/kg) was 7. For the same compound, the “Number of remaining worms” value ([8]; 1 administration, 10 mg/kg) was 5, the “EPG Before administration” value ([8]; 1 administration, 10 mg/kg) was 2100 and the “EPG Upon autopsy” value ([8]; 1 administration, 10 mg/kg) was 200. For the same compound, the “Number of worms eliminated” value ([8]; 2 administrations, 1.25 mg/kg/administration) was 2, the “% Elimination” value [8, 11] was 18.2% and 33.3% and the “EPG Before administration” value [8, 11] was 2300 and 1800. The “Number of remaining worms” value [8, 9] was 1, the “EPG Before administration” value ([8]; 2 administrations, 2.5 mg/kg/administration, 2.5 mg/kg) was 3300 and 3800 and the “EPG Upon autopsy” value [8, 9] was 0. For the same compound, the “% Elimination” value [8, 10] was 100%, the “Number of worms eliminated” value [8, 10] was 13 and the “Number of remaining worms” value [8, 10] was 0. For the same compound, the “EPG Before administration” value [8, 10] was 2700 and the “EPG Upon autopsy” value [8, 10] was 0.

Reference: patent US5116815A, “PF 1022 substance, method of treating helminthic parasitic infection and anthelmintic composition” (Meiji Seika Kaisha Ltd., priority 1989, dated 1992)
